# Data taken from US20240308968A1, “FUNGICIDAL SUBSTITUTED HETEROCYCLES” (FMC Corporation, priority 2021, published 2024).
# How the values were obtained:
# Format in all cases: in vivo
# Phakopsora pachyrhizi = assay: Test D: preventive spray on soybean seedlings, Asian soybean rust disease rating; settings: 100 = 100% disease control, 0 = no control; for pest or weed control at 50 ppm: Phakopsora pachyrhizi, 216 h
# Source text: (§1) General protocol for preparing test suspensions for Tests A-F: the test compounds were first dissolved in acetone in an amount equal to 3% of the final volume and then suspended at the desired concentration (in ppm) in acetone and purified water (50/50 mix by volume) containing 50 to 250 ppm of the surfactant PEG400 (polyhydric alcohol esters). The resulting test suspensions were then used in Tests A-F.
# The test solution was sprayed to the point of run-off on soybean seedlings. The following day the seedlings were inoculated with a spore suspension of Phakopsora pachyrhizi (the causal agent of Asian soybean rust) and incubated in a saturated atmosphere at 22° C. for 24 h and then moved to a growth chamber at 22° C. for 8 days, after which time visual disease ratings were made.
# (§2) The test suspension was sprayed to the point of run-off on tomato seedlings. The following day the seedlings were inoculated with a spore suspension of Alternaria solani (the causal agent of tomato early blight) and incubated in a saturated atmosphere at 27° C. for 48 h, and then moved to a growth chamber at 20° C. for 3 days, after which time visual disease ratings were made. A rating of 100 indicates 100% disease control and a rating of 0 indicates no disease control (relative to the controls). A dash (-) indicates the compound was not tested.
# Botrytis cinerea = assay: Test E: preventive spray on tomato seedlings, tomato Botrytis disease rating; settings: 100 = 100% disease control, 0 = no control; for pest or weed control at 50 ppm: Botrytis cinerea, 120 h
# Source text: as §1
# The test suspension was sprayed to the point of run-off on tomato seedlings. The following day the seedlings were inoculated with a spore suspension of Botrytis cinerea (the causal agent of tomato Botrytis) and incubated in a saturated atmosphere at 20° C. for 48 h, and then moved to a growth chamber at 24° C. for 3 days, after which time visual disease ratings were made.
# as §2
# [1] = system: Blumeria graminis f. sp. Tritici; assay: Test C: preventive spray on wheat seedlings, wheat powdery mildew disease rating; settings: 100 = 100% disease control, 0 = no control; for pest or weed control at 50 ppm: Blumeria graminis, 192 h
# Source text: as §1
# The test suspension was sprayed to the point of run-off on wheat seedlings. The following day the seedlings were inoculated with a spore dust of Blumeria graminis f. sp. Tritici, (also known as Erysiphe graminis f. sp. Tritici, the causal agent of wheat powdery mildew) and incubated in a growth chamber at 20° C. for 8 days, after which time visual disease ratings were made.
# as §2
# [2] = system: Puccinia recondita f. sp. Tritici; assay: Test B: preventive spray on wheat seedlings, wheat leaf rust disease rating; settings: 100 = 100% disease control, 0 = no control; for pest or weed control at 50 ppm: Puccinia recondita, 192 h
# Source text: as §1
# The test solution was sprayed to the point of run-off on wheat seedlings. The following day the seedlings were inoculated with a spore suspension of Puccinia recondita f. sp. Tritici (the causal agent of wheat leaf rust) and incubated in a saturated atmosphere at 20° C. for 24 h, and then moved to a growth chamber at 20° C. for 7 days, after which time disease ratings were made.
# as §2
# Alternaria solani = assay: Test F: preventive spray on tomato seedlings, tomato early blight disease rating; settings: 100 = 100% disease control, 0 = no control; for pest or weed control at 50 ppm: Alternaria solani, 120 h
# Source text: as §1, §2
# Zymoseptoria tritici = assay: Test A: preventive spray on wheat seedlings, wheat leaf blotch disease rating; settings: 100 = 100% disease control, 0 = no control; for pest or weed control at 50 ppm: Zymoseptoria tritici, 456 h
# Source text: as §1
# The test solution was sprayed to the point of run-off on wheat seedlings. The following day the seedlings were inoculated with a spore suspension of Zymoseptoria tritici (the causal agent of wheat leaf blotch) and incubated in a saturated atmosphere at 24° C. for 48 h, and then moved to a growth chamber at 20° C. for 17 days, after which time disease ratings were made. […]
SMILES,Test D disease control rating (Phakopsora pachyrhizi; 50 ppm) [%],Test E disease control rating (Botrytis cinerea; 50 ppm) [%],Test C disease control rating ([1]; 50 ppm) [%],Test B disease control rating ([2]; 50 ppm) [%],Test F disease control rating (Alternaria solani; 50 ppm) [%],Test A disease control rating (Zymoseptoria tritici; 50 ppm) [%],further results
Cn1nc(-c2ccsc2)c(-c2c(F)cccc2F)cc1=O [Compound 1],–,–,–,–,–,–,Test D disease control rating (Phakopsora pachyrhizi; 250 ppm): 65%; Test E disease control rating (Botrytis cinerea; 250 ppm): 0%; Test C disease control rating ([1]; 250 ppm): 0%; Test B disease control rating ([2]; 250 ppm): 0%; Test F disease control rating (Alternaria solani; 250 ppm): 0%; Test A disease control rating (Zymoseptoria tritici; 250 ppm): 0%
Cn1nc(-c2cccnc2)c(-c2c(F)cccc2F)cc1=O [Compound 2],0,0,0,0,0,0,–
Cn1nc(-c2ccoc2)c(-c2c(F)cccc2F)cc1=O [Compound 3],–,–,–,–,–,–,Test D disease control rating (Phakopsora pachyrhizi; 250 ppm): 38%; Test E disease control rating (Botrytis cinerea; 250 ppm): 0%; Test C disease control rating ([1]; 250 ppm): 0%; Test B disease control rating ([2]; 250 ppm): 0%; Test F disease control rating (Alternaria solani; 250 ppm): 0%; Test A disease control rating (Zymoseptoria tritici; 250 ppm): 0%
"Cc1ccncc1-c1nn(C)c(=O)c(Cl)c1-c1ccc(F)cc1Cl [Compound 4, 4-chloro-5-(2-chloro-4-fluorophenyl)-2-methyl-6-(4-methyl-3-pyridinyl)-3(2H)-pyridazinone]",–,–,–,–,–,–,pest or weed control at 50 ppm (Phakopsora pachyrhizi; 50 ppm): 38%; pest or weed control at 50 ppm (Botrytis cinerea; 50 ppm): 65%; pest or weed control at 50 ppm ([1]; 50 ppm): 89%; pest or weed control at 50 ppm ([2]; 50 ppm): 89%; pest or weed control at 50 ppm (Alternaria solani; 50 ppm): 70%; pest or weed control at 50 ppm (Zymoseptoria tritici; 50 ppm): 100%
Cc1c(-c2ccc(F)cc2Cl)c(-c2ccsc2)nn(C)c1=O [Compound 5],21,93,96,74,91,100,–
Cc1c(-c2ccc(F)cc2Cl)c(-c2ccsc2Br)nn(C)c1=O [Compound 6],78,91,99,100,99,100,–
"Cc1c(-c2ccc(F)cc2Cl)c(-c2ccsc2Cl)nn(C)c1=O [Compound 7, 5-(2-chloro-4-fluorophenyl)-6-(2-chloro-3-thienyl)-2,4-dimethyl-3(2H)-pyridazinone]",–,–,–,–,–,–,pest or weed control at 50 ppm (Phakopsora pachyrhizi; 50 ppm): 100%; pest or weed control at 50 ppm (Botrytis cinerea; 50 ppm): 97%; pest or weed control at 50 ppm ([1]; 50 ppm): 99%; pest or weed control at 50 ppm ([2]; 50 ppm): 100%; pest or weed control at 50 ppm (Alternaria solani; 50 ppm): 99%; pest or weed control at 50 ppm (Zymoseptoria tritici; 50 ppm): 99%
Cc1sccc1-c1nn(C)c(=O)c(C)c1-c1ccc(F)cc1Cl [Compound 8],96,94,99,100,99,99,–
Cc1c(-c2ccc(F)cc2Cl)c(-c2cccs2)nn(C)c1=O [Compound 9],8,98,95,79,16,100,–
Cc1c(-c2ccc(F)cc2Cl)c(-c2ccc(Cl)s2)nn(C)c1=O [Compound 10],12,96,96,68,16,100,–
Cc1cnn(-c2nn(C)c(=O)c(C)c2-c2ccc(F)cc2Cl)c1 [Compound 11],0,91,97,0,24,70,–
Cc1cnn(-c2nn(C)c(=O)c(C)c2-c2ccccc2Cl)c1 [Compound 12],17,0,0,0,15,0,–
Cc1c(-c2ccc(F)cc2Cl)c(-c2cc(Br)sc2Br)nn(C)c1=O [Compound 13],0,90,73,80,0,99,–
Cc1cscc1-c1nn(C)c(=O)c(C)c1-c1ccc(F)cc1Cl [Compound 14],72,96,97,99,94,100,–
Cc1c(-c2nn(C)c(=O)c(C)c2-c2ccc(F)cc2Cl)csc1Br [Compound 15],24,92,99,100,99,100,–
Cc1c(-c2ccc(F)cc2Cl)c(-c2sc(Br)cc2Br)nn(C)c1=O [Compound 16],0,37,64,68,0,99,–
Cc1c(-c2ccc(F)cc2Cl)c(-c2ccc(Br)s2)nn(C)c1=O [Compound 17],12,39,56,68,0,99,–
COc1ccc(Cl)c(-c2nn(C)c(=O)c(C)c2-c2ccsc2C)c1 [Compound 18],13,97,93,92,0,96,–
Cc1c(-c2ccc(F)cc2Cl)c(-c2ccn(C)n2)nn(C)c1=O [Compound 20],0,33,72,19,0,0,–
"COc1ccc(Cl)c(-c2nn(C)c(=O)c(C)c2-c2cnccc2C)c1 [Compound 21, 6-(2-chloro-5-methoxyphenyl)-2,4-dimethyl-5-(4-methyl-3-pyridinyl)-3(2H)-pyridazinone]",–,–,–,–,–,–,pest or weed control at 50 ppm (Phakopsora pachyrhizi; 50 ppm): 25%; pest or weed control at 50 ppm (Botrytis cinerea; 50 ppm): 96%; pest or weed control at 50 ppm ([1]; 50 ppm): 86%; pest or weed control at 50 ppm ([2]; 50 ppm): 68%; pest or weed control at 50 ppm (Alternaria solani; 50 ppm): 0%; pest or weed control at 50 ppm (Zymoseptoria tritici; 50 ppm): 54%
Cc1c(-c2ccc(F)cc2Cl)c(-c2nn(C)cc2Cl)nn(C)c1=O [Compound 22],53,94,98,93,0,94,–
"COc1cc(OC)cc(-n2nc(CO)c(=O)c(C)c2-c2ccc(F)cc2F)c1 [Compound 23, 6-(2,4-difluorophenyl)-1-(3,5-dimethoxyphenyl)-3-(hydroxymethyl)-5-methyl-4(1H)-pyridazinone]",–,–,–,–,–,–,pest or weed control at 50 ppm (Phakopsora pachyrhizi; 50 ppm): 43%; pest or weed control at 50 ppm (Botrytis cinerea; 50 ppm): 46%; pest or weed control at 50 ppm ([1]; 50 ppm): 0%; pest or weed control at 50 ppm ([2]; 50 ppm): 68%; pest or weed control at 50 ppm (Alternaria solani; 50 ppm): 53%; pest or weed control at 50 ppm (Zymoseptoria tritici; 50 ppm): 3%
COc1cc(-c2cc(C#N)c(=O)n(C)c2-c2ccc(F)cc2Cl)ccc1Cl [Compound 160],–,–,–,–,–,–,Test D disease control rating (Phakopsora pachyrhizi; 250 ppm): 0%; Test E disease control rating (Botrytis cinerea; 250 ppm): 94%; Test C disease control rating ([1]; 250 ppm): 0%; Test B disease control rating ([2]; 250 ppm): 80%; Test A disease control rating (Zymoseptoria tritici; 250 ppm): 46%
